According to patent publication US3962282A, “Juvenile hormone mimics” (priority 1974, dated 1976):

Key:
Type in all cases: in vivo
Tenebrio molitor pupae = assay: topical application to Tenebrio molitor pupae, maturation inhibition
Excerpt: (§1) The compounds were applied in acetone solution at concentrations of 10 percent, 1 percent and 0.5 percent. One microliter of the acetone solution was applied to each test specimen. Ten test specimens were employed for each insect at each concentration and compared to ten acetone controls and ten zero controls. Approximately eight to ten days were required before results could be ascertained.
(§2) The insect species used in the test were Tenebrio molitor pupae; milkweed bug, fourth nymphal stage; wax moth, fifth larval stage; and Mexican bean beetle, fourth larval stage. At the completion of the test, each specimen was examined for the degree of juvenile and adult characteristics. The milkweed bug, wax moth, and Mexican bean beetle were assigned a numerical rating of 0 to 3 with 0 indicating no effect and 3 indicating the maximum effect or least adult development. Because of differences in morphology the Tenebrio rating scale was 0 to 4. In all cases a rating of 2 or higher means that the insect is incapable of reproduction. The number of specimens in each rating classification are given. In any test were the total of specimens reported is less than 10, those unreported died in some metamorphic stage. Such deaths indicate control, since the dead insects are not capable of reproducing.

milkweed bug = assay: topical application to milkweed bug, fourth nymphal stage, maturation inhibition
Excerpt: as §1, §2

Mexican bean beetle = assay: topical application to Mexican bean beetle, fourth larval stage, maturation inhibition
Excerpt: as §1, §2

wax moth = assay: topical application to wax moth, fifth larval stage, maturation inhibition
Excerpt: as §1, §2

[1] = 10% in acetone, 1 microliter topical, rating scale 0 (no effect) to 3 (maximum)
[2] = 10% in acetone, 1 microliter topical, rating scale 0 (no effect) to 4 (maximum)

| Compound | number of specimens in rating 4 (Tenebrio molitor pupae; 0.5%, rating scale 0-4) | number of specimens in rating 4 (Tenebrio molitor pupae; 1%, rating scale 0-4) | number of specimens in rating 4 (Tenebrio molitor pupae; 10%, rating scale 0-4) | number of specimens in rating 3 (milkweed bug; 0.5%, rating scale 0-3) | number of specimens in rating 3 (milkweed bug; 1%, rating scale 0-3) | number of specimens in rating 3 (milkweed bug; 10%, rating scale 0-3) | number of specimens in rating 0 (Tenebrio molitor pupae; 0.5%, rating scale 0-4) | number of specimens in rating 0 (Tenebrio molitor pupae; 1%, rating scale 0-4) | number of specimens in rating 0 (Mexican bean beetle; 0.5%, rating scale 0-3) | number of specimens in rating 0 (Mexican bean beetle; 1%, rating scale 0-3) | number of specimens in rating 1 (Mexican bean beetle; 1%, rating scale 0-3) | number of specimens in rating 3 (Mexican bean beetle; 1%, rating scale 0-3) | number of specimens in rating 3 (Mexican bean beetle; 10%, rating scale 0-3) | number of specimens in rating 0 (milkweed bug; 0.5%, rating scale 0-3) | number of specimens in rating 0 (milkweed bug; 1%, rating scale 0-3) | number of specimens in rating 0 (wax moth; 0.5%, rating scale 0-3) | number of specimens in rating 0 (wax moth; 1%, rating scale 0-3) | number of specimens in rating 0 (wax moth; [1]) | number of specimens in rating 1 (Tenebrio molitor pupae; 0.5%, rating scale 0-4) | number of specimens in rating 3 (Mexican bean beetle; 0.5%, rating scale 0-3) | also measured |
| --- | --- | --- | --- | --- | --- | --- | --- | --- | --- | --- | --- | --- | --- | --- | --- | --- | --- | --- | --- | --- | --- |
| CC(C)CCCC(C)CCCc1ccc2c(c1)OCO2 (stereo not drawn) [9-(3,4-methylenedioxyphenyl)-2,6-dimethylnonane] | 7 specimens | 10 specimens | 10 specimens | 8 specimens | 10 specimens | 8 specimens |  |  |  |  |  |  |  |  |  |  |  |  |  |  | number of specimens in rating 3 (Tenebrio molitor pupae; 0.5%, rating scale 0-4): 3 specimens |
| CC(C)=CCC/C(C)=C/CCc1cccc(C)c1 [trans-2,6-dimethyl-9-(3-tolyl)-2,6-nonadiene] |  |  | 10 specimens |  | 1 specimens | 10 specimens | 10 specimens | 9 specimens | 9 specimens | 1 specimens | 1 specimens | 7 specimens | 10 specimens | 10 specimens | 5 specimens | 10 specimens | 10 specimens | 10 specimens |  |  | number of specimens in rating 2 (Tenebrio molitor pupae; 1%, rating scale 0-4): 1 specimens; number of specimens in rating 2 (Mexican bean beetle; 0.5%, rating scale 0-3): 1 specimens; number of specimens in rating 2 (Mexican bean beetle; 1%, rating scale 0-3): 1 specimens; number of specimens in rating 2 (milkweed bug; 1%, rating scale 0-3): 2 specimens |
| CC(C)=CCC/C(C)=C/CCc1c(Cl)cccc1Cl [trans-9-(2,6-DICHLOROPHENYL)-2,6-DIMETHYL-2,6-NONADIENE] |  |  |  |  |  | 10 specimens | 10 specimens | 10 specimens | 10 specimens | 9 specimens | 1 specimens |  |  | 10 specimens | 8 specimens | 10 specimens | 10 specimens | 10 specimens |  |  | number of specimens in rating 0 (Tenebrio molitor pupae; [2]): 9 specimens; number of specimens in rating 0 (Mexican bean beetle; [1]): 8 specimens; number of specimens in rating 1 (Mexican bean beetle; 10%, rating scale 0-3): 2 specimens |
| CC(C)=CCC/C(C)=C/CCc1ccccc1 [2,6-DIMETHYL-9-PHENYL-2,6-NONADIENE] |  |  | 5 specimens |  |  | 9 specimens | 7 specimens | 6 specimens |  |  |  | 10 specimens | 10 specimens | 8 specimens | 2 specimens | 10 specimens | 10 specimens | 10 specimens | 3 specimens | 10 specimens | number of specimens in rating 1 (Tenebrio molitor pupae; 1%, rating scale 0-4): 4 specimens; number of specimens in rating 2 (Tenebrio molitor pupae; 10%, rating scale 0-4): 1 specimens; number of specimens in rating 3 (Tenebrio molitor pupae; 10%, rating scale 0-4): 4 specimens; number of specimens in rating 1 (milkweed bug; 0.5%, rating scale 0-3): 1 specimens; number of specimens in rating 2 (milkweed bug; 0.5%, rating scale 0-3): 1 specimens; number of specimens in rating 1 (milkweed bug; 1%, rating scale 0-3): 1 specimens |
| CCOC(=O)c1ccc(CC/C=C(\C)CCC=C(C)C)cc1 [ethyl trans-4-(4,8-dimethyl-3,7-nonadienyl)benzoate] |  |  |  | 6 specimens | 10 specimens | 10 specimens | 9 specimens | 10 specimens | 9 specimens | 10 specimens |  |  |  | 1 specimens |  | 10 specimens | 10 specimens | 10 specimens |  |  | number of specimens in rating 0 (Tenebrio molitor pupae; [2]): 3 specimens; number of specimens in rating 1 (Tenebrio molitor pupae; 10%, rating scale 0-4): 5 specimens; number of specimens in rating 2 (Tenebrio molitor pupae; 10%, rating scale 0-4): 1 specimens; number of specimens in rating 3 (Tenebrio molitor pupae; 10%, rating scale 0-4): 1 specimens; number of specimens in rating 0 (Mexican bean beetle; [1]): 8 specimens; number of specimens in rating 2 (Mexican bean beetle; 10%, rating scale 0-3): 2 specimens; number of specimens in rating 2 (milkweed bug; 0.5%, rating scale 0-3): 3 specimens |
| CCC1(C)OC1CCC(C)=CCCc1ccc2c(c1)OCO2 (stereo not drawn) [3,4-EPOXY-3,7-DIMETHYL-10-(3,4-METHYLENEDIOXYPHENYL)-7-DECENE] | 10 specimens | 10 specimens | 10 specimens |  | 8 specimens |  |  |  |  |  |  | 10 specimens |  | 2 specimens | 2 specimens |  |  |  |  | 10 specimens | number of specimens in rating 1 (milkweed bug; 0.5%, rating scale 0-3): 5 specimens; number of specimens in rating 2 (milkweed bug; 0.5%, rating scale 0-3): 2 specimens; number of specimens in rating 2 (wax moth; 0.5%, rating scale 0-3): 1 specimens; number of specimens in rating 3 (wax moth; 0.5%, rating scale 0-3): 9 specimens; number of specimens in rating 3 (wax moth; 1%, rating scale 0-3): 10 specimens |
| CC(C)=CCC/C(C)=C/CCc1cccc(Br)c1 [trans-9-(3-BROMOPHENYL)-2,6-DIMETHYL-2,6-NONADIENE] |  |  |  | 10 specimens | 10 specimens | 10 specimens | 8 specimens | 8 specimens | 8 specimens | 7 specimens | 1 specimens | 2 specimens | 1 specimens |  |  |  |  |  | 1 specimens | 1 specimens | number of specimens in rating 2 (Tenebrio molitor pupae; 0.5%, rating scale 0-4): 1 specimens; number of specimens in rating 1 (Tenebrio molitor pupae; 1%, rating scale 0-4): 2 specimens; number of specimens in rating 0 (Tenebrio molitor pupae; [2]): 8 specimens; number of specimens in rating 1 (Tenebrio molitor pupae; 10%, rating scale 0-4): 2 specimens; number of specimens in rating 1 (Mexican bean beetle; 0.5%, rating scale 0-3): 1 specimens; number of specimens in rating 0 (Mexican bean beetle; [1]): 9 specimens |
| CC(C)=CCC/C(C)=C/CCc1ccc(Br)cc1 [trans-9-(4-BROMOPHENYL)-2,6-DIMETHYL-2,6-NONADIENE] | 1 specimens |  | 10 specimens | 10 specimens | 10 specimens | 9 specimens | 8 specimens | 9 specimens |  |  |  | 10 specimens | 10 specimens |  |  |  |  |  | 1 specimens | 10 specimens | number of specimens in rating 1 (Tenebrio molitor pupae; 1%, rating scale 0-4): 1 specimens |
| CCCCCCCCCc1ccc2c(c1)OCO2 [5-(n-NONYL)-1,3-BENZODIOXOLE] |  | 1 specimens | 7 specimens |  | 4 specimens | 5 specimens | 6 specimens | 2 specimens | 9 specimens | 10 specimens |  |  | 8 specimens | 8 specimens | 3 specimens |  |  |  | 1 specimens |  | number of specimens in rating 2 (Tenebrio molitor pupae; 0.5%, rating scale 0-4): 3 specimens; number of specimens in rating 2 (Tenebrio molitor pupae; 1%, rating scale 0-4): 5 specimens; number of specimens in rating 3 (Tenebrio molitor pupae; 1%, rating scale 0-4): 1 specimens; number of specimens in rating 3 (Tenebrio molitor pupae; 10%, rating scale 0-4): 3 specimens; number of specimens in rating 1 (milkweed bug; 0.5%, rating scale 0-3): 1 specimens; number of specimens in rating 1 (milkweed bug; 1%, rating scale 0-3): 1 specimens; number of specimens in rating 2 (milkweed bug; 1%, rating scale 0-3): 1 specimens; number of specimens in rating 0 (milkweed bug; [1]): 4 specimens; number of specimens in rating 2 (milkweed bug; 10%, rating scale 0-3): 1 specimens |
| CCC(C)=CCCC(C)=CCCc1ccc2c(c1)OCO2 [3,7-DIMETHYL-10-(3,4-METHYLENEDIOXYPHENYL)-3,7-DECADIENE] | 10 specimens | 10 specimens | 10 specimens | 8 specimens | 9 specimens | 5 specimens |  |  |  |  |  |  |  |  |  |  |  |  |  |  | number of specimens in rating 1 (milkweed bug; 0.5%, rating scale 0-3): 1 specimens |
| CC(C)=CCC/C(C)=C/CCc1cccs1 [trans-9-(2-THIENYL)-2,6-DIMETHYL-2,6-NONADIENE] |  |  | 9 specimens |  |  | 4 specimens | 8 specimens | 10 specimens | 9 specimens | 5 specimens | 5 specimens |  | 10 specimens | 10 specimens | 10 specimens |  |  |  | 2 specimens |  | number of specimens in rating 1 (Tenebrio molitor pupae; 10%, rating scale 0-4): 1 specimens; number of specimens in rating 1 (Mexican bean beetle; 0.5%, rating scale 0-3): 1 specimens; number of specimens in rating 0 (milkweed bug; [1]): 3 specimens |
